From ChEMBL document CHEMBL1146213, “Biscembranoids and their probable biogenetic precursor from the Hainan soft coral Sarcophyton tortuosum” (J Nat Prod, 2007)
Calls of active or inactive are those of the source.

Columns and labels:
A549 = assay: Antitumor activity against A549 cells; assay type: functional, cell-based; conditions: Homo sapiens
P388 = assay: Antitumor activity against P388 cells; assay type: functional, cell-based; conditions: Mus musculus
Cladosporium cucumerinum = assay: Antifungal activity against Cladosporium cucumerinum; assay type: functional, organism-based

Measured: Activity

COC(=O)[C@@]12CC(=O)[C@@H](C(C)C)CC(=O)[C@@H](C)CCC[C@@H](C)CC(=O)[C@@H]1CC(C)=C1[C@H](O)C[C@](C)(Cl)[C@H]3CC[C@@](C)(O3)[C@H](O)CC/C(C)=C/[C@H]12
inactive: all assays above

COC(=O)/C1=C/C(=O)C[C@H](C)CCC[C@H](C)C(=O)C[C@H](C(C)C)C(=O)C1
inactive: all assays above

C=C1CC[C@@H]2O[C@@H]1CC/C(C)=C/[C@@H]1C(=C(C)C[C@H]3C(=O)C[C@H](C)CCC[C@H](C)C(=O)C[C@H](C(C)C)C(=O)C[C@@]13C(=O)OC)[C@H](O)C[C@@]2(C)O
inactive: all assays above

COC(=O)[C@@]12CC(=O)[C@@H](C(C)C)CC(=O)[C@@H](C)CCC[C@@H](C)CC(=O)[C@@H]1CC(C)=C1[C@H](O)C[C@@]3(C)O[C@@H]3CC[C@@]3(C)O[C@@H]3CC/C(C)=C/[C@H]12
inactive: all assays above

COC(=O)[C@@]12CC(=O)[C@@H](C(C)C)CC(=O)[C@@H](C)CCC[C@@H](C)CC(=O)[C@@H]1CC(C)=C1[C@H](O)C[C@@](C)(Cl)[C@@H](O)CC[C@@]3(C)O[C@@H]3CC/C(C)=C/[C@H]12
inactive: all assays above

COC(=O)[C@@]12CC(=O)[C@@H](C(C)C)CC(=O)[C@@H](C)CCC[C@@H](C)/C=C3\O[C@@](C)(C[C@@H]31)/C1=C/C[C@](C)(O)[C@H]3CC[C@@](C)(O3)[C@H](O)CC/C(C)=C/[C@H]12
inactive: all assays above
